Assay [1] relates to HEK293. The assay is described as follows: HEK cell cytotoxicity by LDH release, dose response, cytotoxicity control for IDE activator project, fluorescence, HEK cells (AID 588440).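 Further: cytotoxicity by LDH release measuring loss of membrane integrity.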 The note with it: Homo sapiens. The assay is classed as functional, cell-based. Background: Release of lactate dehydrogenase indicates damage to the cell membrane.
In assay [2] the target is T1, Zinc finger protein mex-5 (Caenorhabditis elegans, UniProt Q9XUB2).
T1 sequence (Q9XUB2 whole entry): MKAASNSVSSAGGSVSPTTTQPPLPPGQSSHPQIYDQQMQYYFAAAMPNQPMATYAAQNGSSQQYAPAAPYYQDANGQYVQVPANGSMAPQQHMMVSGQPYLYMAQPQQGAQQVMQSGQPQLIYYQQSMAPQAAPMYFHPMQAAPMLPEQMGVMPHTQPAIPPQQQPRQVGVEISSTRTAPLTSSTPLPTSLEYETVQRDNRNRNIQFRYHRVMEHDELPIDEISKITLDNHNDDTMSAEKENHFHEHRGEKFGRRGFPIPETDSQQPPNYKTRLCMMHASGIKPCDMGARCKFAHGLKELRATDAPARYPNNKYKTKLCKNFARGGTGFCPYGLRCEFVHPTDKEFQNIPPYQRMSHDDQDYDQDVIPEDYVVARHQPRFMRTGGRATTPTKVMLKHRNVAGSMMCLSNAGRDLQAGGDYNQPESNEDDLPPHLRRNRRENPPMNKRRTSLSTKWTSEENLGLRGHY
In words: MEX-5/TCR-2 RNA interaction inhibitors, dose response, biochemical, C. elegans, fluorescence polarization (AID 1960).

For assay [3], the target named is T2, Sentrin-specific protease 8 (Homo sapiens, UniProt Q96LD8).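 Further: kinetic enzyme assay of SENP8 cleaving a Nedd8 protein substrate, dose-response confirmation of screening hits.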
T2 sequence (Q96LD8 whole entry): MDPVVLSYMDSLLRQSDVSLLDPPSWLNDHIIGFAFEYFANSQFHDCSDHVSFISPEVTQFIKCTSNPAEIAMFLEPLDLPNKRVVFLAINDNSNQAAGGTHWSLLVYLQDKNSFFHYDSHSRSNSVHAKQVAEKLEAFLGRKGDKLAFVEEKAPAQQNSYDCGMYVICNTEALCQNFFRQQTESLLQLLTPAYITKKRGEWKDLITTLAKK
The assay is classed as functional.

For assay [4], the target named is Tyrosyl-DNA phosphodiesterase 2 (Homo sapiens, UniProt O95551). The assay is described as follows: human TDP2 enzyme inhibitors, dose response, biochemical, epi absorbance, IC50 (AID 743297).
The subject of assay [5] is BJ. In words: cells. The assay is classed as functional, cell-based. To be noted: Homo sapiens.
Assay [6] has as its target 72 kDa type IV collagenase (Homo sapiens, UniProt P08253). The assay is described as follows: Dose Response validation of uHTS RPN11 inhibitor hits using a MMP-2 Fluorescence assay. It is filed as functional.
For assay [7], the target named is T3, Alkaline phosphatase, tissue-nonspecific isozyme (Homo sapiens, UniProt P05186).
T3 sequence (P05186 whole entry): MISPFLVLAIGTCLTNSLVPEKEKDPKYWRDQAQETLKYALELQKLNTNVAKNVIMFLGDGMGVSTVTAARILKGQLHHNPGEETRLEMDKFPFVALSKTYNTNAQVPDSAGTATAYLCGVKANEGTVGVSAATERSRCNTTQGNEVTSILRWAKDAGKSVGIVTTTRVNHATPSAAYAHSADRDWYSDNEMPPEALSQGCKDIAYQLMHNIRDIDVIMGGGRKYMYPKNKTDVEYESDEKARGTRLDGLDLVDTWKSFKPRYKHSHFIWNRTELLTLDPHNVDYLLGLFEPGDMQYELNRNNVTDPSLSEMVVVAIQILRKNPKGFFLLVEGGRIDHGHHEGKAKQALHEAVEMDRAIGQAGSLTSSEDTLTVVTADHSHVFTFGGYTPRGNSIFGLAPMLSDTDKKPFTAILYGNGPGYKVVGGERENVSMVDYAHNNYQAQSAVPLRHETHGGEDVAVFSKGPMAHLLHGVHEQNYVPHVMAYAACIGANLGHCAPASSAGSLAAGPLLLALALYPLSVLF
In words: TNAP enzyme activators, dose response, selectivity assay for human IAP activator project, biochemical, TNAP isozyme, human IAP uHTS hits (AID 488886).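 Further: potency of compounds raising TNAP activity as a selectivity check on IAP activators.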 It is filed as functional.

Assay [8] in a line: cells. It is filed as functional, cell-based.
Assay [9] concerns the target Mitogen-activated protein kinase 14 (Homo sapiens, UniProt Q16539). It is filed as functional.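 Further: part of a kinome-wide panel, MAPK14 entry.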
Assay [10] concerns the target Maternal embryonic leucine zipper kinase (Homo sapiens, UniProt Q14680). It is filed as functional.
Assay [11] concerns the target Calcium/calmodulin-dependent protein kinase type II subunit delta (Homo sapiens, UniProt Q13557). It is filed as functional.
Assay [12] addresses Activin receptor type-1 (Homo sapiens, UniProt Q04771). In words: Navigating the Kinome. Panel member name: ACVR1. The assay is classed as functional.
For assay [13], the target named is Platelet-derived growth factor receptor alpha (Homo sapiens, UniProt P16234). In words: Navigating the Kinome. Panel member name: PDGFRA. The assay is classed as functional.
For assay [14], the target named is Serine/threonine-protein kinase N2 (Homo sapiens, UniProt Q16513). It is filed as functional.
The target in assay [15] is Cell division cycle 7-related protein kinase (Homo sapiens, UniProt O00311). It is filed as functional.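 Further: value obtained from a kinome-wide kinase panel.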
The target in assay [16] is Homeodomain-interacting protein kinase 2 (Homo sapiens, UniProt Q9H2X6). The assay is classed as functional.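 Further: measured within a kinome-wide kinase profiling panel, HIPK2 being one panel member.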
The target in assay [17] is Serine/threonine-protein kinase 3 (Homo sapiens, UniProt Q13188). The assay is classed as functional.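 Further: measured as one member of a kinome-wide kinase panel.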
The target in assay [18] is Misshapen-like kinase 1 (Homo sapiens, UniProt Q8N4C8). The assay is classed as functional.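 Further: kinome panel screen with MINK as the panel member.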
A short description of assay [19]: C. albicans growth with fluconazole, confirmation, fluorescence, retest (AID 2467). It is filed as functional, cell-based.
The nature of assay [20]: CEM21 lymphoblast cell cytotoxicity, dose response, cytotoxicity control for viral fusion inhibitor project, CellTiter-Glo luminescence, cherry-picked (AID 652042).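 Further: potency for signal decrease meaning cytotoxicity.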 It is filed as functional, cell-based. (In general: In ATP-based viability assays light output follows the ATP content of the culture.)
Assay [21] is described as follows: luciferase reporter signal reduction – luminescence, H4-C neuroglioblastoma cells, dose response (AID 2458).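 Further: H4 neuroglioblastoma cells stably carrying a luciferase reporter gene fusion.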 The assay is classed as functional, cell-based.
Assay [22] can be described thus: cells. It is filed as functional, cell-based. This is another data set of the same source.
Assay [23] in a line: ZM109 Env clade C HIV-1 fusion inhibitors, dose response, HeLa effector, CEM target cells, luciferase, cherry-pick (AID 652058). It is filed as functional, cell-based.
A short description of assay [24]: inhibitors of intracellular T. cruzi replication, confirmation, NIH3T3 host cells, beta-gal luminescence (AID 2044).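 Further: intracellular parasites grown in NIH/3T3 mouse fibroblasts as host cells; luminescent beta-galactosidase reporter signal from transgenic T. cruzi replicating inside host cells; inhibitors lower the luminescence signal.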 The assay is classed as functional, cell-based.

Activity calls are given as the source filed them.

The term IC50 denotes the concentration that inhibits the measured activity by half. In general, EC50 refers to the concentration at which the effect is half-maximal. What is called Ki is the equilibrium dissociation constant of an inhibitor or competing ligand from its target. What is called AC50 is the concentration at which the activity in the assay is half-maximal.

Sequence of Tyrosyl-DNA phosphodiesterase 2 (O95551 whole entry): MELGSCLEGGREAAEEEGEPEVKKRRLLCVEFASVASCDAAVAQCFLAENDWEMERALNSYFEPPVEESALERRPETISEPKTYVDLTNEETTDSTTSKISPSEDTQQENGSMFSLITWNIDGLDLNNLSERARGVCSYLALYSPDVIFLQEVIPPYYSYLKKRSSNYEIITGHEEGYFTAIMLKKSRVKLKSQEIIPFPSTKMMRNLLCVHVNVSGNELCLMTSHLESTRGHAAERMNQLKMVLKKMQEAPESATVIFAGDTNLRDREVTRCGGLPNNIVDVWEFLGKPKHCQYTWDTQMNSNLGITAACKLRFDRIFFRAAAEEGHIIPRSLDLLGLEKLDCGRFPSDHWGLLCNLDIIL
Sequence of Homeodomain-interacting protein kinase 2 (Q9H2X6 whole entry): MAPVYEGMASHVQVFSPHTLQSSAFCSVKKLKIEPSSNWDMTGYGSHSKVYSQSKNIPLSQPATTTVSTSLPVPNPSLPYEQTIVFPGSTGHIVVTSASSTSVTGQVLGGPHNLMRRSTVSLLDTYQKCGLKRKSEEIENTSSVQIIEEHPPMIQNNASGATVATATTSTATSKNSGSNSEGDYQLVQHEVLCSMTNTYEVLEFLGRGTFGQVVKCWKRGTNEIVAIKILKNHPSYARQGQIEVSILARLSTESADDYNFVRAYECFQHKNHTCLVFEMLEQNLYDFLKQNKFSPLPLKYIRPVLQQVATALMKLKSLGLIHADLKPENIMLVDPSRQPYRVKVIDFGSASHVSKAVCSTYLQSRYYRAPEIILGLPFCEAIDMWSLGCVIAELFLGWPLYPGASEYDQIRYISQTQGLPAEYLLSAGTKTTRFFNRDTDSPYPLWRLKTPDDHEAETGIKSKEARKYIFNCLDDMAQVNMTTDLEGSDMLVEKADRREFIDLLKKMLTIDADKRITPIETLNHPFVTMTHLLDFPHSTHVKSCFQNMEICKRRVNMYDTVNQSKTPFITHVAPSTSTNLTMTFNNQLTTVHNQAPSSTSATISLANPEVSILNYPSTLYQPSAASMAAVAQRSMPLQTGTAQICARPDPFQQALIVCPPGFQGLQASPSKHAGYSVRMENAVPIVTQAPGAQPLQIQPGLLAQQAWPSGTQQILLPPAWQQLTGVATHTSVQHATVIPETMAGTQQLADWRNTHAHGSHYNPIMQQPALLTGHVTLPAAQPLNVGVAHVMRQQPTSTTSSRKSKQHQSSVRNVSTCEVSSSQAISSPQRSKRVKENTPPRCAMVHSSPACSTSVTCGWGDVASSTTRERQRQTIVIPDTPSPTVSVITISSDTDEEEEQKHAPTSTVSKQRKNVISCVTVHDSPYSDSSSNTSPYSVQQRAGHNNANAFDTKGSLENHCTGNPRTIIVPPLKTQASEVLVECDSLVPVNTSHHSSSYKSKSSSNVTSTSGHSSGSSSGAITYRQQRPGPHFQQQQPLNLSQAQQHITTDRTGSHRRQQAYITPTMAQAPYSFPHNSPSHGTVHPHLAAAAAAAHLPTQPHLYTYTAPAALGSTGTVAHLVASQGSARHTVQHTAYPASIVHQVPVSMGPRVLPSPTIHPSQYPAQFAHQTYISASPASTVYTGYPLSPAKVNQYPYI
Sequence of Maternal embryonic leucine zipper kinase (Q14680 whole entry): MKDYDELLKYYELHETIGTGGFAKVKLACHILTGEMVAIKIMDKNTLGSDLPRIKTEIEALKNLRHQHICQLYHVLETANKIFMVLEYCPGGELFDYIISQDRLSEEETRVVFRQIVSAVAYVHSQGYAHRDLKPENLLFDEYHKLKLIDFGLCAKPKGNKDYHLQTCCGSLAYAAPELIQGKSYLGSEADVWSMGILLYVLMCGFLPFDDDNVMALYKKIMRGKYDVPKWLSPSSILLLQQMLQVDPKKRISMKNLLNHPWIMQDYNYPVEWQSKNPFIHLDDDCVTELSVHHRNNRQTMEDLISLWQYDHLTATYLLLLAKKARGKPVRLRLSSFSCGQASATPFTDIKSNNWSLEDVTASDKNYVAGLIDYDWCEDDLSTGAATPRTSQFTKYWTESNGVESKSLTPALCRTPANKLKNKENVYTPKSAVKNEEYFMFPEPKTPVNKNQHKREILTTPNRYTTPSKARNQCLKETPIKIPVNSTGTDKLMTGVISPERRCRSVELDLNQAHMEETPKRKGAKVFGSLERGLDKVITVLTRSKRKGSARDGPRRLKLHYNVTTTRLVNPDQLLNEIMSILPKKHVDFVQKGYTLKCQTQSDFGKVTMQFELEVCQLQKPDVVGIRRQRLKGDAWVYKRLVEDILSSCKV
Sequence of 72 kDa type IV collagenase (P08253 whole entry): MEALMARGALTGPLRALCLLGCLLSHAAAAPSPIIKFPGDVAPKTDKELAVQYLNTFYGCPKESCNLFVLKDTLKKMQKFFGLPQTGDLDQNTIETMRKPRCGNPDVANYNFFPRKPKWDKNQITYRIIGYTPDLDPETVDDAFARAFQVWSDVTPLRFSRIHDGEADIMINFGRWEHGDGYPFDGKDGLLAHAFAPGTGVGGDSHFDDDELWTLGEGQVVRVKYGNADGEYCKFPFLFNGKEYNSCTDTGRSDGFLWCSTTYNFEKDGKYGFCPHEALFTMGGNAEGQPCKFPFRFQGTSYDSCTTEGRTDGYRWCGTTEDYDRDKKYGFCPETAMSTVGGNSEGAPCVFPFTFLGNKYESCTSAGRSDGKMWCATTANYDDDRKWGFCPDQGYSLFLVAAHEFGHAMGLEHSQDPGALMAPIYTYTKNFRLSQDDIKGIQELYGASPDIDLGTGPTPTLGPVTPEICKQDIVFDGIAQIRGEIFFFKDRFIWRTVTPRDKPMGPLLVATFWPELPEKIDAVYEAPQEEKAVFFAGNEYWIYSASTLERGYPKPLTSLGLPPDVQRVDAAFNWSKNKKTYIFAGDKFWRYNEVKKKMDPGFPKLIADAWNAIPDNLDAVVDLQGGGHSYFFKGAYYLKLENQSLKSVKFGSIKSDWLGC
Sequence of Cell division cycle 7-related protein kinase (O00311 whole entry): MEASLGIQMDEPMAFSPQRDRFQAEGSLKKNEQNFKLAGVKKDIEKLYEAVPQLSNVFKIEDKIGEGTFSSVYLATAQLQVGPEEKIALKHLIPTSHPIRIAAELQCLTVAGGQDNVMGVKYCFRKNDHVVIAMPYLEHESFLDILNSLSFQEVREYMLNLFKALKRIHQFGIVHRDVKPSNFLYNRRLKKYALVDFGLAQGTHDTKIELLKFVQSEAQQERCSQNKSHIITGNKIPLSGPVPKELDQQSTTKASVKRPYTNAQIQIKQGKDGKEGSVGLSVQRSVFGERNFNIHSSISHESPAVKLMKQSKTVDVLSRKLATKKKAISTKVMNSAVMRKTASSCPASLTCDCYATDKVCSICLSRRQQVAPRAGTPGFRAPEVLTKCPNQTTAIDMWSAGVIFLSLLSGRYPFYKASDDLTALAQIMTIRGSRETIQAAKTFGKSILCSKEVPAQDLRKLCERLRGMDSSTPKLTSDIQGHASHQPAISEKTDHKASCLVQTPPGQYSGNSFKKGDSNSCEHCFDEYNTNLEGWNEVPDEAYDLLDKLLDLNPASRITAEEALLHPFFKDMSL
Sequence of Serine/threonine-protein kinase N2 (Q16513 whole entry): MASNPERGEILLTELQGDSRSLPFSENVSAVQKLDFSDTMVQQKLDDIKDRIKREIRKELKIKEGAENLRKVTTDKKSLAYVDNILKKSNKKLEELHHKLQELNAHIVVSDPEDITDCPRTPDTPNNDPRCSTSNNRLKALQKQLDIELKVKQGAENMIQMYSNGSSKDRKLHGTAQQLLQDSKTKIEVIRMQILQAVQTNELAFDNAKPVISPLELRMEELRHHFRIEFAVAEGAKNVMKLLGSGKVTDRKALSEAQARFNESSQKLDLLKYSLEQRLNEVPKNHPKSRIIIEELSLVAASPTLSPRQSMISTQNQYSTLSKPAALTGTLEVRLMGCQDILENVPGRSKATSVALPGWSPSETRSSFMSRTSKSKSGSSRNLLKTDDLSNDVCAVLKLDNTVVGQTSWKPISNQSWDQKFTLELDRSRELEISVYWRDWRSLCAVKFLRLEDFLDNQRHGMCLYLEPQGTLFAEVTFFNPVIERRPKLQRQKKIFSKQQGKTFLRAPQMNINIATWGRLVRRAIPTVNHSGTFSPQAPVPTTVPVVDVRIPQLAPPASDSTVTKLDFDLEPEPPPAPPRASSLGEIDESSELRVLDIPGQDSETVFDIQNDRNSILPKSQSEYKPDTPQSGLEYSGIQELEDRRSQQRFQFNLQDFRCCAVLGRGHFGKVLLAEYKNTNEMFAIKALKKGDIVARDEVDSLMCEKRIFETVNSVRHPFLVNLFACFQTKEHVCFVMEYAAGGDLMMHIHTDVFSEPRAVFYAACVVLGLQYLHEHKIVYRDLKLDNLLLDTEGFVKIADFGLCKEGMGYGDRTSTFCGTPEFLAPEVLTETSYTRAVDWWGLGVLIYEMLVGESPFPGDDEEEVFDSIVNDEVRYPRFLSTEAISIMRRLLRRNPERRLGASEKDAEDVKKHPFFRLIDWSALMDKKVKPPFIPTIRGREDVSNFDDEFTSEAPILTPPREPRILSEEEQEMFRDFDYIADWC
Sequence of Serine/threonine-protein kinase 3 (Q13188 whole entry): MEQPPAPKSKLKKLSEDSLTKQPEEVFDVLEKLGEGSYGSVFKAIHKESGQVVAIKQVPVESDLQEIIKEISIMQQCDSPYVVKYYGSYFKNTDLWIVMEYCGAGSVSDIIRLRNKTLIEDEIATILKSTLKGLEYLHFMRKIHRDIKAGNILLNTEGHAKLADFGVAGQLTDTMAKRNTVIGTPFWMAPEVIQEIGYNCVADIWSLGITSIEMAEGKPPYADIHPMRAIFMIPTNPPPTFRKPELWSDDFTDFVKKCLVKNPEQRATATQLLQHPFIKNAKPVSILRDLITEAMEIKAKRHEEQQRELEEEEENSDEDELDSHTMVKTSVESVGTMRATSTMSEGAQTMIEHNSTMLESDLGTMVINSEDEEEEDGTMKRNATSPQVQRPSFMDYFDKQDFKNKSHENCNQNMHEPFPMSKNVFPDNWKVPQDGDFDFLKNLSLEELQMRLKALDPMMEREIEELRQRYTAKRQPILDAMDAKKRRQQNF

Consider `CNC[C@H](Cc1ccccc1)NC[C@@H](Cc1cccc2ccccc12)NCCc1ccc(C)cc1`, for which the half-inhibitory concentration (IC50) in assay [1] is 9.04 µM (active).
Regarding `Nc1nnc2c(n1)CCCC2`, the EC50 in assay [2] is 59.3 µM (active). Moreover, the IC50 in assay [3] is 2.98 µM (active).
Turning to `O=C(Cc1ccccc1Cl)NC1(O)C(=O)c2ccccc2C1=O`, in assay [4], the IC50 was 11.5 µM (inactive).
For `O=C(N/N=C/c1c(O)ccc2ccccc12)c1[nH]ncc1Br`, the results for the EC50 in assay [5], in assay [7] and in assay [8] were 7.88 µM (active), > 100 µM (inactive) and 10.7 µM (active), respectively. For the same compound, the IC50 in assay [6] was > 100 µM (inactive).
For `Nc1c(-c2ccc(NC(=O)Nc3cccc(C(F)(F)F)c3)cc2)cnc2c(-c3ccc4c(c3)OCO4)cnn12`, the Ki in assay [9] is > 3.98 µM (inactive).
For the compound `O=C(Nc1cc(-c2c[nH]c3ncccc23)cc(Cl)n1)c1ccccc1`, the Ki in assay [10] is 0.0316 µM (active); in assay [11], > 3.16 µM (inactive); in [12] it was > 3.98 µM (inactive); in assay [13] it was > 2.51 µM (inactive); in [14], > 5.01 µM (inactive); in assay [15], 0.00158 µM (active). For the same compound, the Ki in assay [16] is > 3.98 µM (inactive); in assay [17] it was > 3.16 µM (inactive); in [18], > 2.51 µM (inactive).
For the compound `CCN1C(=Cc2sc3ccccc3[n+]2C)C=Cc2cccc(C)c21`, the EC50 in assay [19] is 0.054 µM (active); in [21], 3.14 µM (active); in [22] it was > 12 µM (not active); in assay [24] it was < 0.1 µM (active). The AC50 in [20] is 4.69 µM (active); in assay [23], 7.58 µM (active).
